Entries after “also recorded” stand apart in the source; their conditions may differ. Read-outs that look alike come from different tables or passages of the source.
Key:
[1] = tested on: Hep3B human hepatoma cell line; test: 2D cell viability; type: cell-based; settings: 72 h, read-out: IC50, 2D cultured Hep3B cells in 96-well plates
Hep3B cells [2] = tested on: Hep3B cells
humans = settings: previously categorized; ref Xu et al. 2008; cited from earlier work
Hep3B cells [3] = test: Metabolism-induced toxicity on DataChip/MetaChip; settings: for Change of toxicity in All Mix vs. parent compound: All Mix vs. no enzyme, 3D Hep3B on chip; for CC50: Homo sapiens, Hep3B
[4] = read-out: 1000* Human Cmax; 1000-fold in vivo human Cmax; cited from earlier work
in vitro = settings: human

CC(=O)Nc1ccc(O)cc1 [Acetaminophen]
IC50 ([1]; Homo sapiens, Hep3B): 300 µM
Change of toxicity in P450 Mix vs. parent compound (Hep3B cells [2]): metabolism-induced toxicity
DILI category (humans): P1
Change of toxicity in All Mix vs. parent compound (Hep3B cells [3]): metabolism-induced toxicity

CCc1oc2ccccc2c1C(=O)c1cc(Br)c(O)c(Br)c1 [Benzbromarone]
IC50 ([1]; Homo sapiens, Hep3B): 58 ± 22 µM
DILI category (humans): P1

COc1ccccc1Oc1c(NS(=O)(=O)c2ccc(C(C)(C)C)cc2)nc(-c2ncccn2)nc1OCCO [Bosentan]
IC50 ([1]; Homo sapiens, Hep3B): 55 ± 20 µM
DILI category (humans): P1

O=C1CC2(CCCC2)CC(=O)N1CCCCN1CCN(c2ncccn2)CC1 [Buspirone]
IC50 ([1]; Homo sapiens, Hep3B): 170 ± 74 µM
DILI category (humans): N1

C[C@@](Cc1ccc(O)c(O)c1)(NN)C(=O)O [Carbidopa]
IC50 ([1]; Homo sapiens, Hep3B): 46 ± 28 µM
Change of toxicity in P450 Mix vs. parent compound (Hep3B cells [2]): activated
Cmax [4]: 660 nM
DILI category (humans): N1
Change of toxicity in All Mix vs. parent compound (Hep3B cells [3]): augmented toxicity

CCCNC(=O)NS(=O)(=O)c1ccc(Cl)cc1 [Chlorpropamide]
IC50 ([1]; Homo sapiens, Hep3B): 300 µM
Cmax [4]: 123000 nM
DILI category (humans): P2

O=C(O)Cc1ccccc1Nc1c(Cl)cccc1Cl [Diclofenac]
IC50 ([1]; Homo sapiens, Hep3B): 120 ± 51 µM
DILI category (humans): P2

C[C@]12CC[C@@H]3c4ccc(O)cc4CC[C@H]3[C@@H]1CC[C@@H]2O [Estradiol]
IC50 ([1]; Homo sapiens, Hep3B): 53 ± 20 µM
Cmax [4]: 0.1 nM
DILI category (humans): N3

CC(Cc1ccc(O)cc1)NCC(O)c1cc(O)cc(O)c1 (stereo not shown) [Fenoterol]
IC50 ([1]; Homo sapiens, Hep3B): 300 µM
Cmax [4]: 0.6 nM
IC50 (in vitro): 290 ± 140 µM
DILI category (humans): P2
CC50 (Hep3B cells [3]; read-out: IC50, 3D cultured Hep3B cells on the Data/MetaChip, All Mix): 1200 µM
CC50 (Hep3B cells [3]; read-out: IC50, 3D cultured Hep3B cells on the Data/MetaChip, HLM): 1200 µM
CC50 (Hep3B cells [3]; read-out: IC50, 3D cultured Hep3B cells on the Data/MetaChip, No Enzyme): 1200 µM

CNCCC(Oc1ccc(C(F)(F)F)cc1)c1ccccc1 (stereo not shown) [Fluoxetine]
Cmax [4]: 97 nM
DILI category (humans): N3

CC(C)C(=O)Nc1ccc([N+](=O)[O-])c(C(F)(F)F)c1 [Flutamide]
IC50 ([1]; Homo sapiens, Hep3B): 45 ± 18 µM
DILI category (humans): P2
Change of toxicity in All Mix vs. parent compound (Hep3B cells [3]): statistically less toxicity

CN(C)CCCN1c2ccccc2CCc2ccccc21 [Imipramine]
IC50 ([1]; Homo sapiens, Hep3B): 5 ± 2 µM
DILI category (humans): P2

CC(CCc1ccccc1)NCC(O)c1ccc(O)c(C(N)=O)c1 (stereo not shown) [Labetalol]
IC50 ([1]; Homo sapiens, Hep3B): 150 ± 34 µM
DILI category (humans): P2

Cc1cccc(Nc2ccccc2C(=O)O)c1C [Mefenamic acid]
IC50 ([1]; Homo sapiens, Hep3B): 260 ± 74 µM
DILI category (humans): P2
Change of toxicity in All Mix vs. parent compound (Hep3B cells [3]): statistically less toxicity

CCCOc1ccc2[nH]c(NC(=O)OC)nc2c1 [Oxybendazole]
IC50 ([1]; 2D monolayer, no enzyme, MTT): 24 ± 18 µM
Cmax [4]: 30 nM
DILI category (humans): O1
Change of toxicity in All Mix vs. parent compound (Hep3B cells [3]): augmented toxicity

Nc1ccc(/N=N/c2ccccc2)c(N)n1 [Phenazopyridine]
IC50 ([1]; Homo sapiens, Hep3B): 55 ± 13 µM
Cmax [4]: 124 nM
DILI category (humans): P2

Cc1ccc(N(CC2=NCCN2)c2cccc(O)c2)cc1 [Phentolamine]
IC50 ([1]; Homo sapiens, Hep3B): 48 ± 9 µM

CN(C)CCCN1c2ccccc2Sc2ccccc21 [Promazine]
IC50 ([1]; Homo sapiens, Hep3B): 21 ± 3 µM
Cmax [4]: 490 nM
DILI category (humans): N3

Cc1nc2n(c(=O)c1CCN1CCC(c3noc4cc(F)ccc34)CC1)CCCC2 [Risperidone]
DILI category (humans): P2

CC1=C(CC(=O)O)c2cc(F)ccc2/C1=C\c1ccc([S+](C)[O-])cc1 (stereo not shown) [Sulindac]
IC50 ([1]; Homo sapiens, Hep3B): 300 µM
DILI category (humans): P2
Change of toxicity in All Mix vs. parent compound (Hep3B cells [3]): statistically less toxicity; also recorded: increased IC50

O=c1n(CCCN2CCN(c3cccc(Cl)c3)CC2)nc2ccccn12 [Trazodone]
DILI category (humans): P2

From publication PMC5867211 (Archives of toxicology, 2017)
